Assay results: US9631002B2, “Methods and compositions for producing active vitamin K-dependent proteins” (The University of North Carolina at Chapel Hill, priority 2010, dated 2017)
Like-named read-outs stand apart in the source and are kept apart here.

How the values were obtained:
[1] = system: FIXgla-PC carboxylation in HEK 293 cells; assay type: cell-based, human; settings: for inhibition of FIXgla-PC carboxylation by 2 μM warfarin: 5 μM KO as substrate
[2] = system: FIXgla-PC carboxylation in AV12 cells
[3] = system: carboxylation of FIXgla-PC reporter protein in AV12 cells (reduction of vitamin K to KH2); experiment: Cell-based VKOR activity assay in FIXgla-PC/AV12 or FIXgla-PC/VKOR-Y139F/AV12 cells, carboxylated reporter by ELISA; design: species or system Syrian golden hamster
[4] = literature refs 18, 25; cited from earlier work
[5] = system: carboxylation of FIXgla-PC reporter protein in HEK293 cells (reduction of KO to vitamin K); experiment: Cell-based VKOR activity assay: recombinant VKOR/VKORH expressed in FIXgla-PC/HEK293 cells with KO and warfarin, carboxylated reporter by ELISA; design: species or system human; settings: for carboxylation of reporter protein by human VKOR cysteine mutants: Y139F background, 4 μM warfarin, HEK293 (FIG. 13); for activity in the in vivo assay: cysteine mutants of VKOR-Y139F
[6] = Activity of warfarin-resistant Y139F human VKOR relative to wild-type human VKOR
[7] = previous in vitro results; cited from earlier work

## O=c1oc2ccccc2c(O)c1Cc1c(O)c2ccccc2oc1=O [dicoumarol]
[1]; 20 μM dicoumarol, HEK293, vitamin K
  reporter protein carboxylated: 60%
[1]; KO as vitamin K source, HEK293
  inhibition of reporter protein carboxylation by dicoumarol: significantly inhibited
[1]; cells fed vitamin K, HEK293
  inhibition of reporter protein carboxylation by dicoumarol: only minimal inhibition
[1]; vitamin K as substrate, dicoumarol
  decrease of carboxylation of the reporter protein: ~20%
[2]; vitamin K present, AV12
  inhibition of reporter protein carboxylation by dicoumarol: completely inhibited

## CC1=C(C/C=C(\C)CCC[C@H](C)CCC[C@H](C)CCCC(C)C)C(=O)c2ccccc2C1=O [vitamin K, Vitamin K1]
[1]; 11 μM vitamin K or 5 μM KO, HEK293
  increase in secretion of carboxylated reporter protein compared to no additions: approximately 25 fold
[1]; absence of warfarin, HEK293, 48 h
  vitamin K concentration at which carboxylation occurred maximally: 1 µM
[1]; presence of 2 μM warfarin, HEK293, 48 h
  vitamin K concentration at which maximal carboxylation was detected: 22 µM
[2]; AV12 cells
  vitamin K concentration at which maximum carboxylation of FIXgla-PC occurs: 2.5 µM

## CC(=O)CC(c1ccccc1)c1c(O)c2ccccc2oc1=O (stereo not drawn) [warfarin]
[1]; 1 μM vitamin K, 2 μM warfarin, HEK293
  carboxylated reporter protein detected in the medium in the presence of warfarin: less than 20%
[1]; 4 μM warfarin, HEK293
  carboxylation of reporter protein by endogenous VKOR at 4 μM warfarin: completely abolished
[1]; 2 μM warfarin, HEK293
  inhibition of FIXgla-PC carboxylation by 2 μM warfarin: completely inhibited
[1]; 2 μM warfarin, HEK293, listed as Warfarin
  inhibition of FIXgla-PC carboxylation by 2 μM warfarin: eliminated KO-supported carboxylation
[1]; 11 μM vitamin K as substrate, HEK293
  levels of carboxylated protein in the presence of warfarin, cells fed vitamin K: unaffected
[1]; Homo sapiens, KO (5 μM) as substrate, 48 h, HEK293, read-out: warfarin concentration giving 50% inhibition of FIXgla-PC carboxylation
  IC50: 100 nM
[2]; AV12 stably over expressing VKOR-Y139F, 5 μM KO, 2 μM warfarin
  effect of warfarin on reporter protein carboxylation: abolished reporter protein carboxylation
[2]; vitamin K as substrate, AV12
  inhibition of production of carboxylated reporter protein by warfarin: significantly inhibited
[2]; vitamin K as substrate, warfarin, AV12 (FIG. 4A)
  residual activity: ~20%

B1: VKOR-Y139F: human VKOR rendered warfarin resistant by Y139F mutation; control (protein, UniProt Q9BQB6 1-163, looked up, variant Y139F)
Vitamin K epoxide reductase …: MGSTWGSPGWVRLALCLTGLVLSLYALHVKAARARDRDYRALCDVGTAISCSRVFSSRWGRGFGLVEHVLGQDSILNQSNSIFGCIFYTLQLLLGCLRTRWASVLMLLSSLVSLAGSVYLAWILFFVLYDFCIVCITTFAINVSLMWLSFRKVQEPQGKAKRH
[3]; stable expression in AV12, 5 μM KO, no warfarin (FIG. 7B)
  increase of reporter protein carboxylation by over-expression: approximately two-fold
[3]; transient expression in FIXgla-PC/AV12, 5 μM KO, 2 μM warfarin (FIG. 7A)
  carboxylated reporter protein secreted: no carboxylated reporter protein was secreted
[3]; transient expression in FIXgla-PC/AV12 not stably expressing VKOR-Y139F, KO and warfarin (FIG. 19B)
  support of reporter protein carboxylation: did not support carboxylation of the reporter protein
[4]
  fraction of wild-type activity: ~40%
[5]
  carboxylation of reporter protein by human VKOR cysteine mutants: restored
[5]; transient expression, 5 μM KO, 2 μM warfarin, HEK293, control empty vector
  increase of carboxylated reporter protein compared to the control: ~20 fold
[6]
  reduction in the activity of human VKOR caused by the Y139F mutation: approximately 50%
[6]; Y139F human VKOR
  fraction of wild-type VKOR activity observed: About 50%

B2: C16A: warfarin resistant human VKOR (Y139F) with C16 mutated to alanine (protein, UniProt Q9BQB6 1-163, looked up, variant C16A)
Vitamin K epoxide reductase …: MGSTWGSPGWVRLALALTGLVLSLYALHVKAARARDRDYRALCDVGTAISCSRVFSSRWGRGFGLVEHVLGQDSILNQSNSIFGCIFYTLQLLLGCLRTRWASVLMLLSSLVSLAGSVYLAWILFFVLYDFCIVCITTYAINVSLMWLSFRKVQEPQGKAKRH
[7]
  activity in the in vitro assay: ~40%
[5]; 5 μM KO, 4 μM warfarin (FIG. 17A)
  activity in the in vivo assay: no effect on activity

B3: C43A: warfarin resistant human VKOR (Y139F) with C43 mutated to alanine (protein, UniProt Q9BQB6 1-163, looked up, variant C43A)
Vitamin K epoxide reductase …: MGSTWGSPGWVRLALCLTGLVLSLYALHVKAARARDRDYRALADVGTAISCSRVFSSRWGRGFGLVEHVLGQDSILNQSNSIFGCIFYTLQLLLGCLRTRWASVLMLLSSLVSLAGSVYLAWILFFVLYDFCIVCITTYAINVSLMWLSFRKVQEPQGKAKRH
[7]
  activity in the in vitro assay: ~30%
[5]
  carboxylation of reporter protein by human VKOR cysteine mutants: dramatically decreased activity
[5]; 5 μM KO, 4 μM warfarin (FIGS. 17A-B)
  activity in the in vivo assay: ~5%

B4: CO-VKORH: Corynebacterium jeikeium K411 VKORH, SEQ ID NO:23 (protein, listed as Corynebacterium jeikeium)
chain: MWVWWGREGVSNKESEHMNGLGATKRFGYTFLVLSTIGLIFSALIMHDKVQMALDPNFEPACTFNEVISCTDVMASDQAATFGFANPFIGMIGFPVMMTLAVMLIVGAKLPRWIWYCALAGLAFGVAFVHWLAYSAIYSIGALCPYCMAVWAATLPMFVMTLVHIQREKRREAGEDVAHSALGMPLVVIIAWFLAFTALILDQFVF
[3]; FIXgla-PC/VKOR-Y139F/AV12 (FIG. 21C)
  ability to reduce vitamin K to KH2 compared with MT-VKORH: higher than the KO to vitamin K reduction
[5]; KO as substrate, FIXgla-PC/HEK293 (FIG. 21B)
  activity relative to MT-VKORH: 70%
